# Experimental data taken from patent US4335249A, “Herbicidal diphenyl ethers, sulfides, sulfoxides and sulfones” (Rohm and Haas Company, priority 1976, dated 1982).
# Experiments:
# Assay type in all cases: in vivo
# [1] = test system: cocklebur (Xanthium pensylvanicum); experiment: Preemergence herbicidal activity, cocklebur; conditions: 2 lb/A; for pest or weed control at 2241.7 g/ha: Xanthium strumarium, pre-emergence, 336 h
# Method in brief: (§1)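 Pre: flats treated immediately post-planting. Post: treated 2 wk after germination. Spray = acetone/water solution, 50 gal/acre carrier, rate in lb/A. Read ~2 wk after treatment as average % plants killed.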
# marigold (Tagetes spp.) [2] = experiment: Preemergence herbicidal activity, marigold; conditions: 2 lb/A; for pest or weed control at 2241.7 g/ha: pre-emergence, 336 h
# Method in brief: as §1
# [3] = test system: morningglory (Ipomoca spp.); experiment: Preemergence herbicidal activity, morningglory; conditions: 2 lb/A; for pest or weed control at 2241.7 g/ha: Ipomoea, pre-emergence, 336 h
# Method in brief: as §1
# [4] = test system: tomato (Lycopersicon esculentum); experiment: Preemergence herbicidal activity, tomato; conditions: Pre, 2 lb/A; for pest or weed control at 2241.7 g/ha: Solanum lycopersicum, pre-emergence, 336 h
# Method in brief: as §1
# [5] = test system: velvetleaf (Abutilon theophrasti); experiment: Preemergence herbicidal activity, velvetleaf; conditions: Pre, 2 lb/A; for pest or weed control at 2241.7 g/ha: Abutilon theophrasti, pre-emergence, 336 h
# Method in brief: as §1
# [6] = test system: barnyardgrass (Echinochloa crusgalli); experiment: Preemergence herbicidal activity, barnyardgrass; conditions: Pre, 2 lb/A; for pest or weed control at 2241.7 g/ha: Echinochloa crus-galli, pre-emergence, 336 h
# Method in brief: (§2)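 Flats of soil-planted weed seeds were treated either right after sowing (preemergence) or two weeks after germination (postemergence). Application was a spray of acetone solution diluted in water, 50 gallons per acre carrier, dosed in lb/A.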
# [7] = test system: downybrome (Bromus tectorum); experiment: Preemergence herbicidal activity, downybrome; conditions: Pre, 2 lb/A; for pest or weed control at 2241.7 g/ha: Bromus tectorum, pre-emergence, 336 h
# Method in brief: as §1
# foxtail (Setaria spp.) [8] = experiment: Preemergence herbicidal activity, foxtail; conditions: Pre, 2 lb/A; for pest or weed control at 2241.7 g/ha: Setaria, pre-emergence, 336 h
# Method in brief: as §1
# [9] = test system: yellow nutsedge (Cyperus esculentus); experiment: Preemergence herbicidal activity, yellow nutsedge; conditions: 2 lb/A; for pest or weed control at 2241.7 g/ha: Cyperus, pre-emergence, 336 h
# Method in brief: as §1
# wild oats (Avena fatua) [10] = experiment: Preemergence herbicidal activity, wild oats; conditions: Pre, 2 lb/A; for pest or weed control at 2241.7 g/ha: Avena fatua, pre-emergence, 336 h, read-out: % control, Wild oat
# Method in brief: as §1
# [11] = test system: cocklebur (Xanthium pensylvanicum); experiment: Postemergence herbicidal activity, cocklebur; conditions: 2 lb/A; for pest or weed control at 2241.7 g/ha: Xanthium strumarium, post-emergence, 336 h
# Method in brief: as §1
# marigold (Tagetes spp.) [12] = experiment: Postemergence herbicidal activity, marigold; conditions: 2 lb/A; for pest or weed control at 2241.7 g/ha: post-emergence, 336 h
# Method in brief: as §1
# [13] = test system: morningglory (Ipomoca spp.); experiment: Postemergence herbicidal activity, morningglory; conditions: 2 lb/A; for pest or weed control at 2241.7 g/ha: Ipomoea, post-emergence, 336 h
# Method in brief: as §1
# [14] = test system: tomato (Lycopersicon esculentum); experiment: Postemergence herbicidal activity, tomato; conditions: Post, 2 lb/A; for pest or weed control at 2241.7 g/ha: Solanum lycopersicum, post-emergence, 336 h
# Method in brief: as §1
# [15] = test system: velvetleaf (Abutilon theophrasti); experiment: Postemergence herbicidal activity, velvetleaf; conditions: 2 lb/A; for pest or weed control at 2241.7 g/ha: Abutilon theophrasti, post-emergence, 336 h
# Method in brief: as §2
# [16] = test system: barnyardgrass (Echinochloa crusgalli); experiment: Postemergence herbicidal activity, barnyardgrass; conditions: Post, 2 lb/A; for pest or weed control at 2241.7 g/ha: Echinochloa crus-galli, post-emergence, 336 h
# Method in brief: as §2
# [17] = test system: downybrome (Bromus tectorum); experiment: Postemergence herbicidal activity, downybrome; conditions: Post, 2 lb/A; for pest or weed control at 2241.7 g/ha: Bromus tectorum, post-emergence, 336 h
# Method in brief: as §1
# foxtail (Setaria spp.) [18] = experiment: Postemergence herbicidal activity, foxtail; conditions: Post, 2 lb/A; for pest or weed control at 2241.7 g/ha: Setaria, post-emergence, 336 h
# Method in brief: as §1
# [19] = test system: yellow nutsedge (Cyperus esculentus); experiment: Postemergence herbicidal activity, yellow nutsedge; conditions: 2 lb/A; for pest or weed control at 2241.7 g/ha: Cyperus, post-emergence, 336 h
# Method in brief: as §1
# wild oats (Avena fatua) [20] = experiment: Postemergence herbicidal activity, wild oats; conditions: Post, 2 lb/A; for pest or weed control at 2241.7 g/ha: Avena fatua, post-emergence, 336 h, read-out: % control, Wild oat
# Method in brief: as §1
SMILES,pest or weed control at 2241.7 g/ha [1] [%],pest or weed control at 2241.7 g/ha (marigold (Tagetes spp.) [2]) [%],pest or weed control at 2241.7 g/ha [3] [%],pest or weed control at 2241.7 g/ha [4] [%],pest or weed control at 2241.7 g/ha [5] [%],pest or weed control at 2241.7 g/ha [6] [%],pest or weed control at 2241.7 g/ha [7] [%],pest or weed control at 2241.7 g/ha (foxtail (Setaria spp.) [8]) [%],pest or weed control at 2241.7 g/ha [9] [%],pest or weed control at 2241.7 g/ha (wild oats (Avena fatua) [10]) [%],pest or weed control at 2241.7 g/ha [11] [%],pest or weed control at 2241.7 g/ha (marigold (Tagetes spp.) [12]) [%],pest or weed control at 2241.7 g/ha [13] [%],pest or weed control at 2241.7 g/ha [14] [%],pest or weed control at 2241.7 g/ha [15] [%],pest or weed control at 2241.7 g/ha [16] [%],pest or weed control at 2241.7 g/ha [17] [%],pest or weed control at 2241.7 g/ha (foxtail (Setaria spp.) [18]) [%],pest or weed control at 2241.7 g/ha [19] [%],pest or weed control at 2241.7 g/ha (wild oats (Avena fatua) [20]) [%],other results
"CC(Oc1ccc(Oc2ccc(C(F)(F)F)cc2)cc1)C(N)=O (stereo not drawn) [Example 40, 2-[4-(4-trifluoromethylphenoxy)phenoxy] propanamide]",0,0,0,0,0,99,80,100,0,60,20,0,0,0,0,99,40,95,0,95,
CCC(C)OC(=O)C(C)Oc1ccc(Oc2ccc(C(F)(F)F)cc2Cl)cc1 (stereo not drawn) [Example 34],0,0,0,0,0,100,95,100,0,80,0,0,0,0,0,100,99,100,0,100,
CCOC(=O)C(Oc1ccc(Oc2ccc(C(F)(F)F)cc2Cl)cc1)C(C)C (stereo not drawn) [Example 28],0,0,70,0,0,95,30,90,0,0,0,0,0,0,0,60,20,99,0,60,
CC(Oc1ccc(Oc2ccc(C(F)(F)F)cc2Cl)cc1)C(=O)O (stereo not drawn) [Example 12],,,,,,,,,,,,,,,,,,,,,"% control, Cocklebur ([1]; Pre): 0%; % control, Marigold (marigold (Tagetes spp.) [2]; Pre): 0%; % control, Morningglory ([3]; Pre): 0%; % control, Tomato [4]: 0%; % control, Velvetleaf [5]: 0%; % control, Barnyardgrass [6]: 100%; % control, Downybrome [7]: 0%; % control, Foxtail (foxtail (Setaria spp.) [8]): 100%; % control, Nutsedge ([9]; Pre): 0%; % control, Wild oat (wild oats (Avena fatua) [10]): 60%; % control, Cocklebur ([11]; Post): 0%; % control, Marigold (marigold (Tagetes spp.) [12]; Post): 0%; % control, Morningglory ([13]; Post): 0%; % control, Tomato [14]: 0%; % control, Velvetleaf ([15]; Post): 0%; % control, Barnyardgrass [16]: 100%; % control, Downybrome [17]: 60%; % control, Foxtail (foxtail (Setaria spp.) [18]): 100%; % control, Nutsedge ([19]; Post): 0%; % control, Wild oat (wild oats (Avena fatua) [20]): 70%"
CCOC(=O)CCC(C)Oc1ccc(Oc2ccc(C(F)(F)F)cc2Cl)cc1 (stereo not drawn) [Example 38],0,0,0,0,0,90,0,100,0,0,0,0,0,0,0,100,90,100,0,99,
CCOC(=O)C(C)Oc1ccc(Oc2ccc(C(F)(F)F)cc2Cl)cc1[N+](=O)[O-] (stereo not drawn) [Example 9],0,0,0,0,0,0,0,0,0,0,40,50,0,90,20,40,0,0,0,0,
"CCOC(=O)C(C)Oc1ccc(Sc2ccc(C(F)(F)F)cc2Cl)cc1 (stereo not drawn) [Example 3, Ethyl 2-[4-(2-Chloro-4-trifluoromethylphenylthio)phenoxy] propionate]",0,0,0,0,0,95,40,100,0,30,20,50,50,70,70,70,90,100,66,99,
CC(C)OC(=O)C(C)Oc1ccc(Oc2ccc(C(F)(F)F)cc2Cl)cc1 (stereo not drawn) [Example 22],0,0,0,0,0,100,95,100,0,60,30,30,20,99,40,100,99,100,0,100,
"CCOC(=O)C(C)Oc1ccc(Sc2ccc(C(F)(F)F)cc2[N+](=O)[O-])cc1 (stereo not drawn) [Example 48, Ethyl 2-[4-(2-nitro-4-trifluoromethylphenylthio)phenoxy] propionate]",0,0,0,0,0,95,30,95,0,0,0,0,0,0,0,60,0,20,0,80,
